Patent publication US20220218725A1, “METHODS AND MATERIALS FOR TREATING CANCER” (Mayo Foundation for Medical Education and Research, priority 2019, published 2022)

What was measured:
JeKo-1 cells [1] = experiment: Cell cycle analysis (PI staining, flow cytometry); type: cell-based; conditions: unsynchronized JeKo-1 cells
Method: For cell cycle analysis, Jeko-1 cell line was intubated with CRM 1 inhibitors (concentrations ranging from 0.1-0.5p M) and salicylates (concentration at 3 mM) and Ly-1 cell line was intubated with CRM 1 inhibitors (concentrations ranging from 0.1-2.0 μM) and salicylates (concentration at 0.5-5 mM) for 24 and 48 hours and then fixed with 95% cold ethanol and kept at 4 C° for 24 h and subsequently underwent cell cycle analysis after PI staining and analysis was performed using BD FACS caliber flow cytometer (BD Biosciences) and FlowJo software (Tree Star).
Cell Cycle Analysis Following incubation, cells were fixed with 70% cold ethanol and kept at 4 C° for 24 hours, followed by PI staining. Cell cycle analysis was done by using a BD FACS Caliber flow cytometer (BD Biosciences) and analyzed using FlowJo® Software.
A double thymine block was used to synchronize cells at G1 phase of the cell cycle. JeKo-1 cells were cultured in thymidine at 2 mM in RPMI for 9 hours. Subsequently, cells were washed and cultured in RPMI media (RPMI) without additional thymidine for 12 hours and the second block of cell cycle with thymidine (2 mM) was carried out for an additional 9 hours with in RPMI. Following the double thymidine block, cells were released by re-culturing cells in normal RPMI without additional thymidine. The viability of cells at the time of release was >90%. […]

JeKo-1 cells [2] = experiment: Cell viability, Annexin V/PI assay (also IC50 and combination index); type: cell-based; conditions: for % viability normalized for respective controls: JeKo-1 (MCL), 48 hours, KPT-330 0.1-1.0 μM, CS 1-3 mM, single agent or combination
Method: To assess apoptosis and cellular proliferation, all cell lines were treated with CRM 1 inhibitors (concentration ranging from 0.05-2 μM) and salicylates at concentrations ranging from (0.001-10 mM) for 48 hours before analysis was performed. DMSO was used to substitute the drug in controls.
After 48 hours incubation, cells were washed with Annexin buffer solution and stained with both propidium iodide (PI) and FITC-Annexin V (Life Technologies), and assayed on a BD Accuri flow cytometer (BD Biosciences). Apoptosis results were analyzed with BD CellQuest software. For cell cycle analysis, Jeko-1 cell line was intubated with CRM 1 inhibitors (concentrations ranging from […]) and salicylates (concentration at 3 mM) and Ly-1 cell line was intubated with CRM 1 inhibitors (concentrations ranging from 0.1-2.0 μM) and salicylates (concentration at 0.5-5 mM) for 24 and 48 hours and then fixed with 95% cold ethanol and kept at 4 C° for 24 h and subsequently underwent cell cycle analysis after PI staining and analysis was performed using BD FACS caliber flow cytometer (BD Biosciences) and FlowJo software (Tree Star).
Cell lines were purchased from the cell line repositories ATCC (Manassas, Va.) or DSMZ (Braunschweig, Germany). These included MCL cell lines: JeKo-1, Mino; TCL cell lines: Karpas-299, SR-786; DLBCL cell lines: OCI-Ly1 (LY-1), OCI-Ly3 (LY-3), OCI-Ly19 (LY-19), SU-DHL-6 (DHL-6); MM cell lines: RPMI, U266, OPM2, Xgl, KMS2; ALL cell lines: CRL-1783; non-small cell lung cancer: NCI-H460, A549, HCC827; small cell lung cancer: H1048; sarcoma: Fuji, SW872. Cell lines were cultured according to instruction.
KPT-330 purchased from Selleckchem (cat no: S7252) was dissolved in DMSO while CS (Santa Cruz, Calif.S 2016-36-6), sodium salicylate (Sigma-Aldrich, cat no: S3007), acetyl salicylate (Sigma-Aldrich, cat no: CAS 50-78-2) was diluted in PBS. Ketorolac (Sigma-Aldrich, cat no: 1356665), Bortezomib (Selleckchem, cat no: S1013), gemcitabine (Sigma-Aldrich, cat no: G6423), Leptomycin-B (Sigma-Aldrich, cat no: L2913-2X) and KPT-185 (Selleckchem, cat no: S7125) were dissolved in DMSO. The concentration range of KPT-330 was 0.05-1.0 μM while CS was 1-3 mM were used for ex vivo treatment and incubation time ranged from 24 hours to 72 hours. For the PARP inhibitor assay, olaparib 10 μM (SelleckChem, cat no: AZD2281 Ku-0059436) was used.
The viability assessment for cell lines and primary patients samples were conducted with the Annexin V/PI method.
Jeko-1 and OCI-Ly1 cell lines were used to assess the IC50. Keeping CS at 3 mM, KPT-330 was titrated. Relative IC50 was calculated as described elsewhere (see, e.g., Sebaugh et al., Pharmaceutical statistics 10:128-134 (2011)). The combination index was calculated as described elsewhere (see, e.g., Chou et al., Cancer Res 70:440-446 (2010)).

[3] = tested on: MZL primary patient samples; experiment: Viability of primary patient samples, Annexin V/PI assay; type: cell-based, human; conditions: 48 h, KPT-330 0.05-0.5 μM, CS 1-3 mM
Source text: (§1) Primary patient samples were obtained. The mononuclear cells were obtained from bone marrow, spleen, peripheral blood and lymph nodes as follows. Freshly obtained tissue (lymph node, spleen, bone marrow) was placed in mesh screen and using a syringe plunger, the tissue was pressed into a petri dish. Samples were then rinsed through the screen using measured amounts of RPMI until all tissue has been pressed through. […] Subsequently the mononuclear cells were isolated via centrifugation in the presence of ficoll and this step was again repeated following washing the cells with RPMI media.
(§2) To isolate peripheral blood mononuclear cells (PBMCs), freshly obtained patient blood sample of patients were centrifuged in the present of ficoll and this step was repeated twice following washing the cells with PBS. Following isolating the mononuclear cells, the viability was assessed and ascertained proper viability above 80% prior to conduct respective experiments. Non-malignant cells were confirmed not to have a malignant condition by pathology review of the tissue.

[4] = tested on: Lymphoplasmacytic lymphoma primary patient sample; experiment: as above; type: cell-based, human; conditions: Lymphoplasmacytic lymphoma with IgG monoclonal gammopathy; 48 h; KPT-330 0.05-0.5 μM, CS 1-3 mM
Source text: as §1, §2

[5] = tested on: CLL primary patient samples; experiment: as above; type: cell-based, human; conditions: TP53 deleted, 48 h, KPT-330 0.05-0.5 μM, CS 1-3 mM
Source text: as §1, §2

[6] = tested on: Peripheral T-cell lymphoma primary patient samples; experiment: as above; type: cell-based, human; conditions: 48 h, KPT-330 0.05-0.5 μM, CS 1-3 mM
Source text: as §1, §2

[7] = tested on: T-cell Lymphoblastic leukemia primary patient sample; experiment: as above; type: cell-based, human; conditions: Relapsed T-cell Lymphoblastic leukemia; 48 h; KPT-330 0.05-0.5 μM, CS 1-3 mM
Source text: as §1, §2

[8] = tested on: MCL primary patient samples; experiment: as above; type: cell-based, human; conditions: 48 h, KPT-330 0.05-0.5 μM, CS 1-3 mM
Source text: as §1, §2

[9] = tested on: WM primary patient sample; experiment: as above; type: cell-based, human; conditions: 48 h, KPT-330 0.05-0.5 μM, CS 1-3 mM
Source text: as §1, §2

[10] = tested on: DLBCL primary patient samples; experiment: as above; type: cell-based, human; conditions: 48 h, KPT-330 0.05-0.5 μM, CS 1-3 mM
Source text: as §1, §2

[11] = tested on: MM/plasma cell leukemia primary patient samples; experiment: as above; type: cell-based, human; conditions: 48 h, KPT-330 0.05-0.5 μM, CS 1-3 mM
Source text: as §1, §2

[12] = Relapsed splenic MZL (sample of r15)
[13] = Relapsed splenic MZL (sample of r16)
[14] = Relapsed splenic MZL (sample of r18)
[15] = Relapssd splenic MZL (sample of r17)
[16] = Relapsed CLL: Ibrutinib and Idalalisib resistant
[17] = Relapsed CLL: Ibrutinib resistent
[18] = Relapsed Peripheral T-cell lymphoma (sample of r30)
[19] = Relapsed Peripheral T-cell lymphoma (sample of r31)
[20] = Relapsed MCL resistant to Ibrutinib
[21] = Double expresser transformed from CLL/SLL
[22] = Double hit, replaced from RCHOP, ASCT and BR
[23] = NOS, single agent or combination
[24] = Kappa light chain myeloma/plasma cell leukemia with I(11; 14), standard risk
[25] = MM/plasma cell leukemia, Relapsed with high risk cytogenetics (sample of r32)
[26] = MM/plasma cell leukemia, Relapsed with high risk cytogenetics (sample of r33)
[27] = MM/plasma cell leukemia, Relapsed with high risk cytogenetics (sample of r34)
[28] = MM/plasma cell leukemia, Relapsed with high risk cytogenetics (sample of r38)

Structure (SMILES)	fraction of cells in the G2/M phase (JeKo-1 cells [1]) [%]	% viability normalized for respective controls (JeKo-1 cells [2]) [%]	% viability normalized for respective controls ([3]; Relapsed nodal MZL) [%]	% viability normalized for respective controls [3, 12] [%]	% viability normalized for respective controls [3, 13] [%]	% viability normalized for respective controls [3, 14] [%]	% viability normalized for respective controls [3, 15] [%]	% viability normalized for respective controls [4] [%]	% viability normalized for respective controls [5, 16] [%]	% viability normalized for respective controls [5, 17] [%]	% viability normalized for respective controls [6, 18] [%]	% viability normalized for respective controls [6, 19] [%]	% viability normalized for respective controls [7] [%]	% viability normalized for respective controls [8, 20] [%]	% viability normalized for respective controls ([8]; Relapsed MCL) [%]	% viability normalized for respective controls [9] [%]	% viability normalized for respective controls [10, 21] [%]	% viability normalized for respective controls ([10]; Double expresser) [%]	% viability normalized for respective controls ([10]; Double hit transformed from FL) [%]	% viability normalized for respective controls [10, 22] [%]	further results
C[N+](C)(C)CCO.O=C([O-])c1ccccc1O [CS, choline salicylate]	11	93	65	63	71	65	82	88	78	75	64	73	82	91	68	79	65	80	71	86	% viability normalized for respective controls [10, 23]: 76%; % viability normalized for respective controls [11, 24]: 64%; % viability normalized for respective controls [11, 25]: 58%; % viability normalized for respective controls [11, 26]: 90%; % viability normalized for respective controls [11, 27]: 69%; % viability normalized for respective controls [11, 28]: 99%
O=C(/C=C\n1cnc(-c2cc(C(F)(F)F)cc(C(F)(F)F)c2)n1)NNc1cnccn1 [KPT-330, (Z)-3-[3-[3,5-bis (trifluoromethyl)phenyl]-1,2,4-triazol-1-yl]-N′-pyrazin-2-ylprop-2-enehydrazide]	15	95	58	55	67	67	70	79	72	99	73	68	70	94	89	85	68	74	82	81	IC50 (JeKo-1 cells [2]; Homo sapiens, JeKo-1 (MCL cells), 72 hours, selinexor titrated alone or with CS kept at 3 mM): 1300 nM; % viability normalized for respective controls [10, 23]: 63%; % viability normalized for respective controls [11, 24]: 55%; % viability normalized for respective controls [11, 25]: 79%; % viability normalized for respective controls [11, 26]: 91%; % viability normalized for respective controls [11, 27]: 93%; % viability normalized for respective controls [11, 28]: 96%
